Test results reported in PubChem BioAssay AID1259246 (Broad Institute, 2017).
Where “and” joins values, the source holds several entries; their conditions need not be identical. Identical values can stand only once. Records with an inconclusive call do not appear. Calls of active or inactive are those of the source.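 How the source made its calls: active means valid dose-response fit whose half-maximal growth-inhibiting concentration is at or below a set limit above the top tested dose; inconclusive means flat fit with effect between 30 and 70%, or poor fit; inactive means half-maximal concentration above a set limit.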

experiment: antibacterial activity against Clostridioides difficile – 10-point retest, dose response (AID 1259246); settings: Clostridioides difficile clinical isolate growth, OD600, 24 h; at 60 µM (top of the series)

SMILES | activity change, negative = inhibition
C/C=C/c1ccc2c(c1)O[C@@H](CN(C)Cc1ccc(C(=O)O)cc1)[C@H](C)CN([C@H](C)CO)S2(=O)=O | 8.2% (inactive)
O=C(C[C@@H]1C[C@H]2c3cc(NC(=O)C4CCC4)ccc3O[C@H]2[C@H](CO)O1)NCc1ccc(Cl)cc1 | -4.77% (inactive)
O=C(C[C@H]1C[C@@H]2c3cc(NC(=O)C4CCC4)ccc3O[C@@H]2[C@@H](CO)O1)NCCc1ccccc1 | 0.211% (inactive)
CNC[C@@H]1Oc2ccc(N)cc2CC(=O)N([C@H](C)CO)C[C@H]1C | 0.918% (inactive)

same assay, conditions: Clostridioides difficile clinical isolate growth, OD600, 24 h; at 68 µM (top of the series)

SMILES | activity change, negative = inhibition
C[C@@H]1CN([C@@H](C)CO)C(=O)c2cccc(NC(=O)Nc3ccc(C(F)(F)F)cc3)c2O[C@H]1CN(C)S(=O)(=O)c1ccc(Cl)cc1 | 12.7% (inactive)

same assay, conditions: Clostridioides difficile clinical isolate growth, OD600, 24 h; at 120 µM (top of the series)

SMILES | activity change, negative = inhibition
C[C@@H]1CN([C@H](C)CO)C(=O)c2cc(NC(=O)c3ccccc3)ccc2O[C@@H](C)CCCCO[C@H]1CN(C)S(=O)(=O)c1ccc(F)cc1 | 10.1% (inactive)
C[C@@H]1CN([C@H](C)CO)C(=O)Cc2cc(NC(=O)C3CC3)ccc2O[C@@H]1CN(C)Cc1ccc(Cl)c(Cl)c1 | 27.9% (inactive)
Cc1ccc(S(=O)(=O)N[C@H]2CC[C@H](CCNC(=O)Cc3ccccn3)O[C@H]2CO)cc1 | -0.997% (inactive)
C[C@@H]1CN([C@@H](C)CO)C(=O)c2cccc(NC(=O)Nc3ccc(C(F)(F)F)cc3)c2O[C@H]1CN(C)C(=O)NC1CCCCC1 | 15.3% (inactive)
C[C@H](CO)N1C[C@H](C)[C@@H](CN(C)Cc2ccc(-c3ccccc3)cc2)Oc2ccc(NC(=O)C3CC3)cc2CC1=O | 25.6% (inactive)
C[C@@H]1CCCCO[C@H](CN(C)S(=O)(=O)c2ccc(F)cc2)[C@@H](C)CN([C@H](C)CO)C(=O)c2cc(NC(=O)Nc3cccc4ccccc34)ccc2O1 | 7.93% (inactive)
C[C@@H]1CN([C@@H](C)CO)C(=O)Cc2cc(NC(=O)CCCN(C)C)ccc2O[C@H]1CN(C)Cc1ccncc1 | -4.05% (inactive)
C[C@@H]1CN([C@@H](C)CO)C(=O)c2cccc(NC(=O)Nc3ccc4c(c3)OCO4)c2O[C@@H]1CN(C)Cc1ccccc1 | 19.1% (inactive)
O=C(C[C@H]1C[C@@H]2c3cc(NC(=O)C4CCC4)ccc3O[C@@H]2[C@@H](CO)O1)NCc1ccc(Cl)cc1 | -11.8% (inactive)
C[C@@H]1CN([C@H](C)CO)C(=O)c2cc(NC(=O)Nc3ccc4c(c3)OCO4)ccc2O[C@@H](C)CCCCO[C@H]1CN(C)S(=O)(=O)c1ccc(F)cc1 | 13.1% (inactive)
Cc1ccc(-c2ccc3c(c2)O[C@H](CN(C)Cc2cccnc2)[C@@H](C)CN([C@@H](C)CO)S3(=O)=O)cc1 | 25.7% (inactive)
COc1cccc(NC(=O)N(C)C[C@@H]2Oc3cc(/C=C/c4ccccc4)ccc3S(=O)(=O)N([C@@H](C)CO)C[C@H]2C)c1 | 19.6% (inactive)
COc1ccccc1CNC(=O)C[C@H]1C[C@@H]2c3cc(NC(=O)NC4CCCC4)ccc3O[C@@H]2[C@@H](CO)O1 | -0.476% (inactive)
C[C@@H]1CN([C@H](C)CO)C(=O)c2cc(NC(=O)Nc3cccc4ccccc34)ccc2O[C@@H](C)CCCCO[C@H]1CN(C)S(=O)(=O)c1ccccc1 | 9.12% (inactive)
C[C@H]1CN([C@@H](C)CO)S(=O)(=O)c2ccc(C#CC3CCCCC3)cc2O[C@@H]1CN(C)Cc1cccnc1 | 20.8% (inactive)
COc1ccccc1C#Cc1ccc([C@H]2[C@@H](CO)N(C(=O)C3CC3)[C@H]2C#N)cc1 | 27.5% (inactive)
C[C@@H]1CN([C@@H](C)CO)S(=O)(=O)c2ccc(C#CCN(C)C)cc2O[C@@H]1CN(C)Cc1ccc2c(c1)OCO2 | 2.58% (inactive)
C[C@H]1CN([C@@H](C)CO)S(=O)(=O)c2ccc(C#CC3CCCCC3)cc2O[C@H]1CN(C)Cc1cccnc1 | 19.1% (inactive)
C[C@@H]1CN([C@H](C)CO)S(=O)(=O)c2ccc(C#CCN(C)C)cc2O[C@@H]1CN(C)Cc1ccc(F)cc1 | 0.874% (inactive)
C[C@@H]1CN([C@H](C)CO)S(=O)(=O)c2ccc(C#CC3CCCC3)cc2O[C@H]1CN(C)Cc1cncnc1 | 38.8% (inactive)

SMILES | activity change, negative = inhibition
C[C@@H]1CN([C@@H](C)CO)C(=O)Cc2cc(NC(=O)C3CC3)ccc2O[C@@H]1CN(C)Cc1ccc(-c2ccccc2)cc1 | 20.7% (inactive)
CC(C)CC#Cc1ccc2c(c1)O[C@H](CN(C)Cc1ccc(F)cc1)[C@H](C)CN([C@H](C)CO)S2(=O)=O | 28% (inactive) and 85.7% (inactive)
CNC[C@H]1Oc2ccc(N)cc2CC(=O)N([C@H](C)CO)C[C@H]1C | -8.02% (inactive)
C[C@@H]1CN([C@@H](C)CO)S(=O)(=O)c2ccc(Br)cc2O[C@H]1CN(C)Cc1cccnc1 | 2.31% (inactive)
Cc1cc(C(=O)Nc2cccc3c2O[C@H](CN(C)Cc2ccc(-c4ccccc4)cc2)[C@H](C)CN([C@@H](C)CO)C3=O)n(C)n1 | 0.388% (inactive)
C[C@H]1CN([C@@H](C)CO)C(=O)c2cccc(NC(=O)Nc3ccccc3)c2O[C@H]1CN(C)Cc1ccc(Oc2ccccc2)cc1 | 24.3% (inactive)
C[C@H](CO)N1C[C@H](C)[C@@H](CN(C)C(=O)Nc2ccccc2)OCCCC[C@H](C)Oc2ccc(NC(=O)Nc3cccc4ccccc34)cc2C1=O | 20.2% (inactive)
COc1ccc(CN2C[C@@H](C)[C@H](OC)CN(C)C(=O)c3ccc(NC(=O)c4nc5ccccc5s4)cc3OC[C@H]2C)cc1 | 22.7% (inactive)
C[C@@H]1CN([C@H](C)CO)C(=O)c2cccc(NC(=O)Nc3ccc(C(F)(F)F)cc3)c2O[C@@H]1CN(C)S(=O)(=O)c1ccc(Cl)cc1 | 46.7% (inactive)
O=C(N[C@H]1CC[C@H](CCNS(=O)(=O)c2ccc(Cl)cc2)O[C@H]1CO)c1cnccn1 | -7.94% (inactive)
C[C@H](CO)N1C[C@H](C)[C@H](CN(C)Cc2ccc(Oc3ccccc3)cc2)Oc2c(NC(=O)Nc3ccccc3)cccc2C1=O | 10.9% (inactive)
CO[C@H]1CN(C)C(=O)c2cc(NC(=O)Nc3ccc4c(c3)OCO4)ccc2OC[C@H](C)NC[C@H]1C | -6.51% (inactive)
CO[C@H]1CN(C)C(=O)c2cc(NC(=O)c3ccc(Oc4ccccc4)cc3)ccc2OC[C@H](C)NC[C@H]1C | 31.6% (inactive)
C[C@@H]1CN([C@@H](C)CO)S(=O)(=O)c2ccc(/C=C/c3ccccc3)cc2O[C@H]1CN(C)C(=O)c1ccncc1 | 14.4% (inactive)
C[C@@H]1CCCCO[C@@H](CN(C)S(=O)(=O)c2ccc(F)cc2)[C@H](C)CN([C@@H](C)CO)C(=O)c2cc(NC(=O)Nc3cccc4ccccc34)ccc2O1 | 18.9% (inactive)
C[C@@H]1CN([C@@H](C)CO)C(=O)c2cccc(NC(=O)Nc3ccc(C(F)(F)F)cc3)c2O[C@H]1CN(C)S(=O)(=O)c1ccc(Cl)cc1 | 50.7% (inactive)
C[C@@H]1CN([C@@H](C)CO)C(=O)Cc2cc(NC(=O)C3CCCCC3)ccc2O[C@@H]1CN(C)Cc1ccc(-c2ccccc2)cc1 | 19% (inactive)
Cc1ccc(S(=O)(=O)N[C@H]2CC[C@H](CCNS(=O)(=O)Cc3ccccc3)O[C@H]2CO)cc1 | -4.09% (inactive)
Cc1ccc(S(=O)(=O)N2C[C@@H](O)COC[C@H]3O[C@H](CC(=O)NCc4ccccc4Cl)CC[C@@H]32)cc1 | 13.4% (inactive)
CO[C@@H]1CN(C)C(=O)c2cc(NC(=O)c3ccc(-c4ccccc4)cc3)ccc2OC[C@@H](C)NC[C@@H]1C | 6.12% (inactive)

same assay, conditions: Clostridioides difficile clinical isolate growth, OD600, 24 h; at 135 µM (top of the series)

SMILES | activity change, negative = inhibition
C[C@@H]1CN([C@H](C)CO)C(=O)Cc2cc(NC(=O)CCC(F)(F)F)ccc2O[C@H]1CN(C)Cc1ccc(-c2ccccc2)cc1 | 15.9% (inactive)
COc1ccc(S(=O)(=O)N(C)C[C@@H]2Oc3ccc(NC(=O)CCCN(C)C)cc3CC(=O)N([C@H](C)CO)C[C@H]2C)cc1 | -7.92% (inactive)
COc1ccc(S(=O)(=O)N(C)C[C@H]2Oc3ccc(NC(=O)C4CC4)cc3CC(=O)N([C@H](C)CO)C[C@H]2C)cc1 | -2.76% (inactive)
O=C(C[C@H]1C[C@@H]2c3cc(NC(=O)Nc4ccc(F)cc4)ccc3O[C@@H]2[C@H](CO)O1)NC1CCCCC1 | -1.13% (inactive)
O=S(=O)(Cc1ccccc1)NCC[C@H]1CC[C@H](NS(=O)(=O)c2ccc(F)cc2)[C@H](CO)O1 | -6.92% (inactive)
C[C@H](CO)N1C[C@H](C)[C@H](CN(C)Cc2ccc(-c3ccccc3)cc2)Oc2ccc(NC(=O)C3CC3)cc2CC1=O | 13.1% (inactive)
CNC[C@H]1Oc2ccc(NC(=O)C3CC3)cc2CC(=O)N([C@@H](C)CO)C[C@H]1C | -0.275% (inactive)
C[C@@H]1CN([C@H](C)CO)C(=O)Cc2cc(NC(=O)Nc3ccccc3)ccc2O[C@@H]1CN(C)Cc1ccc(-c2ccccc2)cc1 | 12.7% (inactive)
C[C@@H]1CN([C@@H](C)CO)C(=O)Cc2cc(NS(=O)(=O)c3ccccc3)ccc2O[C@@H]1CN(C)Cc1ccc(-c2ccccc2)cc1 | 17.3% (inactive)
CNC[C@H]1Oc2c(N)cccc2C(=O)N([C@H](C)CO)C[C@@H]1C | -1.95% (inactive)
C[C@H](CO)N1C[C@H](C)[C@H](CN(C)Cc2ccc(F)cc2)Oc2ncc(-c3cc4ccccc4o3)cc2C1=O | 52.5% (inactive)
O=C(C[C@@H]1C[C@H]2c3cc(NC(=O)C4CCC4)ccc3O[C@H]2[C@@H](CO)O1)NCc1ccc(Cl)cc1 | 6.13% (inactive)
COc1ccc(NC(=O)N(C)C[C@@H]2Oc3ccc(NC(=O)CCCN(C)C)cc3CC(=O)N([C@H](C)CO)C[C@H]2C)cc1 | 1.15% (inactive)
C[C@@H]1CN([C@H](C)CO)C(=O)Cc2cc(NS(C)(=O)=O)ccc2O[C@@H]1CN(C)Cc1ccc(-c2ccccc2)cc1 | 20% (inactive)
